In patent publication US10716950B2, “Treatment of thalamocortical dysrhythmia” (priority 2012, dated 2020):
Entries after “also recorded” stand apart in the source; their conditions may differ. Where two headings read alike, the source gives them in different places.

What was measured:
[1] = tested on: conditions associated with thalamocortical dysrhythmia; assay: TMS/Ketamine combination treatment of patients (Example 1)
Experimental: Thirty-five patients were treated with a combination of ketamine and TMS. […] For simplicity of presentation in Table 2, patients receiving treatment more than once a week are shown as receiving a single treatment for that week. Also, intervals are rounded to the nearest week.
Others received a priming TMS treatment prior to the combination treatment. Some patients received neither pretreatment nor priming, although most patients received one or the other. Since the priming treatment is less rigorous than several days of pretreatment, all patients receiving pretreatment were ultimately switched to priming or neither. Pretreatment and or priming treatment were administered based upon diagnosis and patient compliance.

[2] = tested on: depression; conditions: ketamine alone, cited from earlier work
[3] = tested on: obsessive-compulsive disorder (OCD); conditions: OCD patients infused with ketamine; compared with depression and CRPS; Pittenger et al. 2012; cited from earlier work
[4] = tested on: conditions associated with thalamocortical dysrhythmia; assay: TLVES/Ketamine combination treatment of patients (Example 2); conditions: all three patients; tACS or tRNS 20 minutes; ketamine total dose 0.5-5.0 mg per kg infused over 15-50 minutes
[5] = patient B3, Unipolar Depression & ADD, ketamine combined with TMS
[6] = patient B6, Bipolar Depression, ketamine combined with TMS
[7] = patient B23, Fibromyalgia, PTSD, mixed connective tissue disease, ketamine combined with TMS
[8] = patient B26, Bipolar Disorder, poly-substance abuse, ketamine combined with TMS
[9] = patient C11, Tourette's and secondary depression, ketamine combined with TMS
[10] = patient D8, OCD & secondary depression, ketamine combined with TMS
[11] = patient D20, Depression & frontal lobe disorder, ketamine combined with TMS
[12] = patient H2, Bipolar Depression, ketamine combined with TMS
[13] = patient K10, CRPS & regulatory disorder of childhood, ketamine combined with TMS
[14] = patient N7, Multiple head injuries and depression, ketamine combined with TMS
[15] = patient N13, Bipolar Disorder & chronic neck and back pain, ketamine combined with TMS
[16] = patient N14, Unipolar Depression, ADD, alcohol abuse, concussion, ketamine combined with TMS
[17] = patient N30, Depression, fibromyalgia, back pain, ketamine combined with TMS
[18] = patient O34, ADHD, concussion, back pain, substance abuse, ketamine combined with TMS
[19] = patient Q9, Bipolar Depression, ketamine combined with TMS
[20] = patient R17, Childhood depression, PTSD, poly-substance abuse, ketamine combined with TMS
[21] = patient R32, OCD & secondary depression, poly-substance abuse, ketamine combined with TMS
[22] = patient S1, Generalized anxiety & secondary depression, ketamine combined with TMS
[23] = patient S36, Depression, panic attacks, ketamine combined with TMS
[24] = patient T15, Bipolar Depression, ketamine combined with TMS
[25] = patient T29, Bipolar Disorder, dormant poly-substance abuse, ketamine combined with TMS
[26] = patient W24, Depression, ketamine combined with TMS
[27] = patient Z4, Unipolar Depression & ADD, ketamine combined with TMS
[28] = patient Z27, Childhood onset bipolar disorder, ADD, RSD, ketamine combined with TMS
[29] = patient, Bipolar Disorder, poly-substance abuse, ketamine combined with TMS
[30] = patient, Depression & poly-substance abuse, ketamine combined with TMS
[31] = patient, Unipolar Depression & minor epilepsy, ketamine combined with TMS
[32] = patients having positive outcomes, ketamine combined with TMS

SMILES: CNC1(c2ccccc2Cl)CCCCC1=O (racemic) [ketamine, (RS)-2-(2-Chlorophenyl)-2-(methylamino)cyclohexanone]
- Outcome of the patients that completed treatment ([1]; all of the 28 patients that completed treatment, of thirty-five treated, ketamine combined with TMS): positive outcome
- Outcome [1, 5]: entered graduate school, got out of abusive relationship
- Overall Response [1, 5]: excellent
- Outcome [1, 6]: entered graduate school, began to date for first time
- Overall Response [1, 6]: excellent
- Outcome [1, 7]: off pain medicine, calm, more active
- Outcome: adverse effect [1, 7]: experienced severe nausea
- Overall Response [1, 7]: excellent
- Outcome [1, 8]: returned to college, got married
- Overall Response [1, 8]: excellent
- Outcome [1, 9]: off of inappropriate medicines, calm, in school
- Overall Response [1, 9]: good
- Outcome [1, 10]: back to work and active family life
- Overall Response [1, 10]: good
- Outcome [1, 11]: depression lifted, apathy lifted, pace of thought improved
- Overall Response [1, 11]: excellent
- Outcome [1, 12]: returned to home-life and active mothering
- Overall Response [1, 12]: good
- Outcome [1, 13]: off of opioid narcotics, entered trade school, saved subject's life
- Overall Response [1, 13]: excellent
- Outcome [1, 14]: off of all opioid narcotics, back to church life
- Overall Response [1, 14]: excellent
- Outcome [1, 15]: off of all opioid narcotics, calm, walking well
- Overall Response [1, 15]: very good
- Outcome [1, 16]: calm, repaired broken business & family life, sober
- Overall Response [1, 16]: very good
- Outcome [1, 17]: off opioid narcotics, not depressed, traveling
- Overall Response [1, 17]: excellent
- Outcome [1, 18]: did very well, significant other coaxed subject back to substance; also recorded: abuse
- Overall Response [1, 18]: excellent
- Outcome [1, 19]: back to work, repaired broken marriage
- Overall Response [1, 19]: excellent
- Outcome [1, 20]: learned to read, entered college, sober
- Overall Response [1, 20]: excellent
- Outcome [1, 21]: sober, calm, back to college
- Overall Response [1, 21]: excellent
- Outcome [1, 22]: returned to college, sober
- Overall Response [1, 22]: excellent
- Outcome [1, 23]: did very well, repaired broken marriage and family
- Overall Response [1, 23]: excellent
- Outcome [1, 24]: back to church life and active family life
- Overall Response [1, 24]: excellent
- Outcome [1, 25]: entered graduate school, running family business, still sober
- Overall Response [1, 25]: excellent
- Outcome [1, 26]: back to work and active family life
- Overall Response [1, 26]: excellent
- Outcome [1, 27]: no longer bedridden, left bad marriage
- Overall Response [1, 27]: very good
- Outcome [1, 28]: sober, calm, entered college and at work part-time
- Overall Response [1, 28]: very good
- Outcome [1, 29]: calm, still in early stage of treatment
- Overall Response [1, 29]: very good
- Outcome [1, 30]: sober, active with family business
- Overall Response [1, 30]: excellent
- Outcome [1, 31]: relapsed
- Overall Response [1, 31]: good
- Adverse side effects [1, 32]: reduced adverse side effects
- Durability of the positive result [1, 32]: more robust, i.e., long lasting, positive result; also recorded: lasting result
- Percentage of patients with positive outcome compared with success rate reported for TMS alone or ketamine alone ([1]; patients that completed treatment, ketamine combined with TMS): higher
- Response to previous TMS/ketamine treatment ([1]; three more frail, less robust patients later given TLVES/ketamine): significantly improved
- Lasting relief from suicidality or depression [2]: highly transitory
- Success rate in the treatment of depression ([2]; dosages reportedly 5-15 times higher than with TMS): 60-70%
- Lasting relief from suicidality or depression ([2]; listed as Ketamine): does not, however, appear to provide lasting relief from suicidality or depression
- Effectiveness in treating depression ([2]; patients with bipolar disorder who have not responded to anti-depressants): effective
- Time to rapid antidepressant effect ([2]; persons with major depressive disorder (and bipolar depression)): two
- Benefit in OCD patients [3]: rather more limited
- Post-treatment fatigue compared with TMS/ketamine [4]: less of the post-treatment fatigue
- Therapeutic benefit compared with TMS/ketamine [4]: same therapeutic benefits as TMS/ketamine
